Experimental data as given in patent US20240228481A1, “NOVEL SULFONAMIDE SERIES OF QR2 INHIBITORS TO TACKLE OXIDATIVE STRESS AND COGNITIVE DECLINE” (CARMEL HAIFA UNIVERSITY ECONOMIC CORPORATION LTD., priority 2021, published 2024).
Where a name gives a salt, the structure may show the parent alone.

What was measured:
[1] = tested on: C57BL/6 mice; assay: Delay fear conditioning after microinjection to CA1; assay type: in vivo, mouse; details: 5 μM to CA1
Text: Mice were anesthetized under 2% isoflurane, using an induction box (HME109, Highland Medical Equipment). They were placed in a stereotaxic device (Kopf Stereotaxic Alignment System, model 1900) under continuous 1% isoflurane anesthesia. Guide cannulas were implanted bilaterally to CA1 (from bregma: −1.9 mm AP, ±1.4 mm ML, −1.6 mm DV), cemented to the skull and fitted with 28-gauge dummy cannulas extending 0.2 mm beyond the tip of the 1.2 mm guide cannulas. The mice were allowed at least 7 days of recovery before experimentation. The QR2 inhibitor YB-808 was dissolved in DMSO and further diluted in saline to a final DMSO concentration of 0.1%. YB-537 was dissolved in saline (0.9%). A total of 1 μl of 5 μM of either compound or vehicle was infused bilaterally to CA1, via a 28-gauge infusion cannula projecting 0.4 mm (drug delivery depth bregma: −1.6 mm DV) beyond the guide cannula, connected by polyethylene tubing to a 10 μl syringe (Hamilton) over the course of 1 min. The injection cannula was kept for 60 s inside the guide cannula in order prevent osmotic seepage of the doses upward through the cannula tract. Twenty minutes following the injection, animals underwent delay fear conditioning. Following experimentation, animals were sacrificed, brains were excised and sectioned in coronal sections, and cannula implantation was validated by imaging. […]

[2] = tested on: 5×FAD mice; assay: Immunohistochemistry of CA1 in 5×FAD mice (4-HNE, amyloid β, p-Tau, Iba1); assay type: in vivo, mouse; details: 1 month drinking
Procedure: A week after the completion of all behavioral experiments, 5×FAD mice were anesthetized with isoflurane, and once fully anesthetized, were transcardially perfused with 4% paraformaldehyde (PFA), dilutes in […] phosphate buffered saline (PBS, Sigma-Aldrich). Brains were then briefly removed and placed in chilled, 4% PFA for 48 h, followed by immersion in 30% sucrose in 0.1 M PBS for a further 48 h. Brains were then stored at −80° C., until they were sliced into 40 μm coronal sections using a Leica CM 1950 cryostat. Slices were then washed ×3 in PBS and blocked for 1 h at RT using 10% normal donkey serum (DNS) and 0.2% triton (Sigma-Aldrich) in PBS. Antibodies, including 4-HNE (1:500, AbCam, ab48506), Iba1 (1:2,000, AbCam, ab5076), phospho-tau (1:1,000, Thermo, MN1020) and amyloid R (1:1,000, AbCam, ab201060) diluted in PBS with 10% DNS were incubated at 4° C. overnight. The next day, the slices were washed ×3 times in PBS, and secondary antibodies including donkey anti goat Alexa Fluor 568 (AbCam, ab175704), donkey anti-mouse Cy 5 (Jackson Immuno Research, 715-175-151) and donkey anti-rabbit DyLight 488 (AbCam, ab98488) all diluted 1:500 in PBS with 1% BSA, were applied to the slices at RT for 2 h. Following the incubation, the slices were washed ×3 times in PBS, mounted onto glass slides, were uniformly covered in DAPI containing Vectashield (H-1200) and coverslips were added. Images were then taken using a confocal microscope (Olympus IX83), with identical acquisition parameters across every sample per antibody. Three slices were used per mouse per antibody, with images taken of dorsal CA1 (Bregma: −1.58 mm to −2.30 mm; with each antibody having a slice from anterior, medial and posterior regions of this range) using a ×20 objective, acquiring two 800×800 pixel images over as many Z levels possible per slice (Z-stack of the whole section). Analysis of the images was done blind, using Imaris (Bitplane) software. Surface reconstruction module was used to extract the data as volumes and signal intensities. Marker volume or intensity were normalized to the corresponding brain volume. This was done in order to normalize the marker volumes to variations in Z-stack volumes and/or changes to shape and size that needed to be performed during analysis due to debris, vasculature, corpus callosum elimination, or any other obstructions or changes in shape. The normalized value was averaged for each triplicate.
Following the completion of behavioral experiments, the inventors wished to assess brain pathologies associated with AD present in the 5×FAD mice used. Therefore, 5 days following the completion of the last behavioral experiment, and 1 month following the start of YB-537 consumption, all the mice were sacrificed and coronal sections of their fixed brains were made and used for immunohistochemistry. Since the CA1 region of the hippocampus is affected early on in the pathogenesis of AD, and this brain region is involved in the behavioral paradigms used here, the inventors acquired images of CA1. This was done with an Olympus IX83 confocal microscope using the same settings, antibodies and exposures (all slices and samples were prepared by the same experimenter and all images taken by the same experimenter) in all mice and a separate blind experimenter, unaware of the experimental conditions or details, measured and analyzed the signal detected using Imaris (Bitplane) software (see methods). For each mouse, three coronal sections were used per antibody. In each section, the same region of CA1 was acquired, using the same image frame size and resolution, at all possible depths of the section (Z-stack of the whole section), to allow measurement of the fluorescent antibody marker volume, which was normalized to the brain volume from which it was taken. First, the inventors measured oxidative stress, as indicated by lipid peroxidation product, 4-Hydroxynonenal (4-HNE, antibody: AbCam, ab48506). […]

Cc1ccc(-c2cn3cccc(C)c3n2)cc1S(=O)(=O)N1CCNCC1 [YB-537, 8-methyl-2-(4-methyl-3-(piperazin-1-ylsulfonyl)phenyl)imidazo[1,2-a]pyridine hydrochloride]
baseline freezing [1]: 3.595±1.244%
4-HNE volume normalized to μm^3 of brain, CA1 ([2]; 5×FAD females): 0.053±0.005
4-HNE volume normalized to μm^3 of brain, CA1 ([2]; 5×FAD males): 0.053±0.005
Amyloid β volume normalized to μm^3 of brain, CA1 ([2]; 5×FAD males): 0.038±0.004
Volume of Iba1 normalized to μm^3 of brain, CA1 ([2]; 5×FAD males): 0.038±0.003
Volume of p-Tau normalized to μm^3 of brain, CA1 ([2]; 5×FAD males): 0.064±0.006
sum of the intensity of Iba1 positive signal normalized to μm^3 of brain, CA1 ([2]; 5×FAD males): 74.09±6.198
Volume of Iba1 normalized to μm^3 of brain, CA1 ([2]; 5×FAD total population): 0.032±0.002
sum of the intensity of Iba1 positive signal normalized to μm^3 of brain, CA1 ([2]; 5×FAD total population): 63.57±5.251
